The test system of one data set is Colletotricum lagenarium. Put plainly: Cucumber Anthracnose 1-day protectant test (COLLLA). It is filed as in vivo. To be noted: Cucumis sativus, topical, 24 h; one-day protectant test, 200 ppm application rate, cucumber plants (variety Bush Champion); read-out: COLLLA control of disease. On the procedure: The technical compounds were formulated at 200 ppm in 10 vol. acetone plus 90 vol. Triton X water (deionized water 99.99 wt. % +0.01 wt. Triton X100), giving a “formulated test compound.” The compounds were tested for ability to control plant diseases at the whole plant level in a 1-day protectant test (IDP). Formulated test compounds were applied to plants using a turn table sprayer fitted with two opposing air atomization nozzles which delivered approximately 1500 L/ha of spray volume. Plants were inoculated with spores of the fungus the next day, then incubated in an environment conducive to disease development. Disease severity was evaluated 4 to 19 days later, depending on the speed of disease development. Cucumber Anthracnose (causal agent Colletotricum lagenarium; Bayer code COLLLA): Cucumber plants (variety Bush Champion) were grown from seed in a soilless peat-based potting mixture (Metromix) until the first true leaf was 20-80% expanded. Each pot contained 1 seedling. These plants were sprayed until wet with the formulated test compound at a rate of 200 ppm. On the following day, the leaves were inoculated with an aqueous spore suspension of Colletotricum lagenarium and the plants were kept in high humidity for one day to permit spores to germinate and infect the leaf. The plants were then transferred to a growth chamber until disease developed on untreated control plants. The following table presents the activity of typical compounds of the present invention when evaluated in these experiments. The effectiveness of the test compounds in controlling disease was determined by assessing the severity of disease on treated plants, then converting the severity to percent control based on the level of disease on untreated, inoculated plants.

For another data set, the system named is Septoria tritici. Put plainly: Speckled Leaf Blotch of Wheat 1-day protectant test (SEPTTR). It is filed as in vivo. To be noted: Zymoseptoria tritici, topical, 24 h; one-day protectant test, 200 ppm application rate, wheat plants (variety Monon); read-out: SEPTTR control of disease. The procedure: The technical compounds were formulated at 200 ppm in 10 vol. acetone plus 90 vol. Triton X water (deionized water 99.99 wt. % +0.01 wt. Triton X100), giving a “formulated test compound.” The compounds were tested for ability to control plant diseases at the whole plant level in a 1-day protectant test (IDP). Formulated test compounds were applied to plants using a turn table sprayer fitted with two opposing air atomization nozzles which delivered approximately 1500 L/ha of spray volume. Plants were inoculated with spores of the fungus the next day, then incubated in an environment conducive to disease development. Disease severity was evaluated 4 to 19 days later, depending on the speed of disease development. Speckled Leaf Blotch of Wheat (Mycosphaerella graminicola=Septoria tritici; Bayer code […]): Wheat plants (variety Monon) were grown from seed in a greenhouse in 50% pasteurized soil/50% soil-less mix until the first true leaf was fully expanded, with 3-8 seedlings per pot. These plants were sprayed until wet with the formulated test compound at a rate of 200 ppm. On the following day, the leaves were inoculated with an aqueous spore suspension of Septoria tritici and the plants were kept in high humidity (one day in a dark dew chamber followed by four to seven days in a lighted dew chamber) to permit spores to germinate and infect the leaf. The plants were then transferred to a greenhouse until disease developed on untreated control plants. The following table presents the activity of typical compounds of the present invention when evaluated in these experiments. The effectiveness of the test compounds in controlling disease was determined by assessing the severity of disease on treated plants, then converting the severity to percent control based on the level of disease on untreated, inoculated plants.

The test system of another data set is Cochliobolus sativus. In words: Spot Blotch of Wheat 1-day protectant test (COCHSA). It is filed as in vivo. To be noted: Bipolaris sorokiniana, 24 h; one-day protectant test, 200 ppm application rate, wheat plants (variety Yuma); read-out: COCHSA control of disease. The procedure: The technical compounds were formulated at 200 ppm in 10 vol. acetone plus 90 vol. Triton X water (deionized water 99.99 wt. % +0.01 wt. Triton X100), giving a “formulated test compound.” The compounds were tested for ability to control plant diseases at the whole plant level in a 1-day protectant test (IDP). Formulated test compounds were applied to plants using a turn table sprayer fitted with two opposing air atomization nozzles which delivered approximately 1500 L/ha of spray volume. Plants were inoculated with spores of the fungus the next day, then incubated in an environment conducive to disease development. Disease severity was evaluated 4 to 19 days later, depending on the speed of disease development. […] Each pot contained 3-8 seedlings. These plants were sprayed until wet with the formulated test compound at a rate of 200 ppm. On the following day, the leaves were inoculated with an aqueous spore suspension of Cochliobolus sativus and the plants were kept in high humidity for one to two days to permit spores to germinate and infect the leaf. The plants were then transferred to a greenhouse until disease developed on untreated control plants. The following table presents the activity of typical compounds of the present invention when evaluated in these experiments. The effectiveness of the test compounds in controlling disease was determined by assessing the severity of disease on treated plants, then converting the severity to percent control based on the level of disease on untreated, inoculated plants.

In another data set the test system is Puccinia triticina. In words: Leaf Rust of Wheat 1-day protectant test (PUCCRT). To be noted: topical, 24 h, one-day protectant test, 200 ppm application rate, wheat plants (variety Yuma), read-out: PUCCRT control of disease. In kind it is in vivo. On the procedure:
The technical compounds were formulated at 200 ppm in 10 vol. acetone plus 90 vol. Triton X water (deionized water 99.99 wt. % +0.01 wt. Triton X100), giving a “formulated test compound.” The compounds were tested for ability to control plant diseases at the whole plant level in a 1-day protectant test (IDP). Formulated test compounds were applied to plants using a turn table sprayer fitted with two opposing air atomization nozzles which delivered approximately 1500 L/ha of spray volume. Plants were inoculated with spores of the fungus the next day, then incubated in an environment conducive to disease development. Disease severity was evaluated 4 to 19 days later, depending on the speed of disease development. […] Each pot contained 3-8 seedlings. These plants were sprayed until wet with the formulated test compounds at a rate of 200 ppm. On the following day, the leaves were inoculated with an aqueous spore suspension of Puccinia triticina and the plants were kept in high humidity overnight to permit spores to germinate and infect the leaf. The plants were then transferred to a greenhouse until disease developed on untreated control plants. The following table presents the activity of typical compounds of the present invention when evaluated in these experiments. The effectiveness of the test compounds in controlling disease was determined by assessing the severity of disease on treated plants, then converting the severity to percent control based on the level of disease on untreated, inoculated plants.

Another data set deals with Leptosphaeria nodorum. In words: Glume Blotch of Wheat 1-day protectant test (LEPTNO). It is filed as in vivo. The following applies: Parastagonospora nodorum, topical, 24 h; one-day protectant test, 200 ppm application rate, wheat plants (variety Yuma); read-out: LEPTINO control of disease. On the procedure:
The technical compounds were formulated at 200 ppm in 10 vol. acetone plus 90 vol. Triton X water (deionized water 99.99 wt. % +0.01 wt. Triton X100), giving a “formulated test compound.” The compounds were tested for ability to control plant diseases at the whole plant level in a 1-day protectant test (IDP). Formulated test compounds were applied to plants using a turn table sprayer fitted with two opposing air atomization nozzles which delivered approximately 1500 L/ha of spray volume. Plants were inoculated with spores of the fungus the next day, then incubated in an environment conducive to disease development. Disease severity was evaluated 4 to 19 days later, depending on the speed of disease development. Glume Blotch of Wheat (causal agent Leptosphaeria nodorum=Stagnospora nodorum; Bayer code […]): Wheat plants (variety Yuma) were grown from seed in a 50% pasteurized soil/50% soil-less mix until the seedlings had fully expanded first leaf. Each pot contains 3-20 seedlings. These plants were sprayed until wet with the formulated test compound at a rate of 200 ppm. On the following day, the leaves were inoculated with an aqueous spore suspension of Leptosphaeria nodorum and the plants were kept in high humidity (one day in a dark dew chamber followed by four to seven days in a lighted dew chamber) to permit spores to germinate and infect the leaf. The plants were then transferred to a greenhouse until disease developed on untreated control plants. The following table presents the activity of typical compounds of the present invention when evaluated in these experiments. The effectiveness of the test compounds in controlling disease was determined by assessing the severity of disease on treated plants, then converting the severity to percent control based on the level of disease on untreated, inoculated plants.

The subject of a further data set is Pyricularia oryzae. In words: whole plant or invertebrate. In kind it is in vivo. The following applies: topical, 24 h, read-out: PYRIOR control of disease.

Turning to `COCC(C)Nc1cc(-c2ncnc(Nc3cccc(Cl)c3)n2)ccn1` (centres unmarked) [Compound 1, N-(3-chlorophenyl)-4-{2-[(2-methoxy-1-methylethyl)amino]pyridin-4-yl}-1,3,5-triazin-2-amine], the melting point was 149 to 151 °C. The pest or weed control at 200 ppm in the data set on Colletotricum lagenarium lay in the range of 90 to 100%. The pest or weed control at 200 ppm in the data set with Septoria tritici is 50 to 89%. In addition, the pest or weed control at 200 ppm in the data set on Cochliobolus sativus lay in the range of 90 to 100%. Further, in the data set with Puccinia triticina, the pest or weed control at 200 ppm is 90 to 100%. Besides, in the data set with Leptosphaeria nodorum, the pest or weed control at 200 ppm fell in the range of 90 to 100%. The pest or weed control at 200 ppm with Pyricularia oryzae was 90 to 100%.

`COC[C@H](C)Nc1cc(-c2ncnc(Nc3cccc(Cl)c3)n2)ccn1` [Compound 2, N-(3-chlorophenyl)-4-(2-{[(1S)-2-methoxy-1-methylethyl]amino}pyridin-4-yl)-1,3,5-triazin-2-amine] came in with a melting point of 152 to 156 °C. In addition, in the data set with Colletotricum lagenarium, the pest or weed control at 200 ppm is 90 to 100%. In addition, the pest or weed control at 200 ppm with Septoria tritici lay in the range of 90 to 100%. In the data set on Cochliobolus sativus, the pest or weed control at 200 ppm is 90 to 100%. In the data set with Puccinia triticina, the pest or weed control at 200 ppm fell in the range of 90 to 100%. Further, the pest or weed control at 200 ppm in the data set on Leptosphaeria nodorum was 90 to 100%. The pest or weed control at 200 ppm with Pyricularia oryzae lay in the range of 90 to 100%.

Molecule `COCC(C)Nc1cc(-c2ncnc(Nc3ccccc3Cl)n2)ccn1` (centres unmarked) [Compound 3, N-(2-chlorophenyl)-4-{2-[(2-methoxy-1-methylethyl)amino]pyridin-4-yl}-1,3,5-triazin-2-amine] registered a melting point of 139 to 140 °C. The pest or weed control at 200 ppm with Colletotricum lagenarium is < 20%. For the same molecule, in the data set with Septoria tritici, the pest or weed control at 200 ppm lay in the range of 21 to 49%. In the data set on Cochliobolus sativus, the pest or weed control at 200 ppm fell in the range of 90 to 100%. Further, the pest or weed control at 200 ppm in the data set with Puccinia triticina lay within 50 to 89%. For the same molecule, the pest or weed control at 200 ppm with Leptosphaeria nodorum lay within 21 to 49%. Besides, the pest or weed control at 200 ppm with Pyricularia oryzae lay within 50 to 89%.

`COCC(C)Nc1cc(-c2ncnc(Nc3ccc(Cl)cc3)n2)ccn1` (centres unmarked) [Compound 4, N-(4-chlorophenyl)-4-{2-[(2-methoxy-1-methylethyl)amino]pyridin-4-yl}-1,3,5-triazin-2-amine] came in with a melting point of 198 to 200 °C. For the same molecule, in the data set with Colletotricum lagenarium, the pest or weed control at 200 ppm was < 20%. In addition, the pest or weed control at 200 ppm in the data set with Septoria tritici was in the range of 50 to 89%. Further, in the data set with Cochliobolus sativus, the pest or weed control at 200 ppm was in the range of 50 to 89%. For the same molecule, the pest or weed control at 200 ppm in the data set with Puccinia triticina was in the range of 50 to 89%. Moreover, in the data set with Leptosphaeria nodorum, the pest or weed control at 200 ppm was 50 to 89%. Also, the pest or weed control at 200 ppm with Pyricularia oryzae is < 20%.

`CC(C)(C)Nc1cc(-c2ncnc(Nc3cccc(Cl)c3)n2)ccn1` [Compound 5, 4-[2-(tert-butylamino)pyridin-4-yl]-N-(3-chlorophenyl)-1,3,5-triazin-2-amine]: the pest or weed control at 200 ppm in the data set with Colletotricum lagenarium fell in the range of 50 to 89%; in the data set on Septoria tritici, 90 to 100%; with Cochliobolus sativus it was 90 to 100%; in the data set on Puccinia triticina, 90 to 100%; in the data set with Leptosphaeria nodorum, 50 to 89%; with Pyricularia oryzae, 90 to 100%.

`CC(COCc1ccccc1)Nc1cc(-c2ncnc(Nc3cccc(Cl)c3)n2)ccn1` (centres unmarked) [Compound 6, N-(3-chlorophenyl)-4-{2-[(2-(benzyloxy)-1-methylethyl)amino]pyridin-4-yl}-1,3,5-triazin-2-amine]: the melting point was 79 to 80 °C. The pest or weed control at 200 ppm with Colletotricum lagenarium is < 20%. The pest or weed control at 200 ppm with Septoria tritici is 90 to 100%. Besides, the pest or weed control at 200 ppm in the data set on Cochliobolus sativus is 50 to 89%. The pest or weed control at 200 ppm in the data set with Puccinia triticina was 90 to 100%. The pest or weed control at 200 ppm in the data set on Leptosphaeria nodorum was in the range of 50 to 89%. Further, the pest or weed control at 200 ppm in the data set with Pyricularia oryzae is < 20%.

Turning to `Clc1ccc(Nc2ncnc(-c3ccnc(N4CCCCC4)c3)n2)cc1` [Compound 8, N-(4-chlorophenyl)-4-(2-piperidin-1-ylpyridin-4-yl)-1,3,5-triazin-2-amine], the pest or weed control at 200 ppm was < 20% with Colletotricum lagenarium; 50 to 89% in the data set with Septoria tritici; < 20% in the data set on Cochliobolus sativus; < 20% in the data set on Puccinia triticina; 50 to 89% with Leptosphaeria nodorum; < 20% with Pyricularia oryzae.

On to `CC1COC(=O)N1c1cc(-c2ncnc(Nc3cccc(Cl)c3)n2)ccn1` (centres unmarked) [Compound 9], for which the pest or weed control at 200 ppm lay within 21 to 49% in the data set with Colletotricum lagenarium; 50 to 89% in the data set on Septoria tritici; 90 to 100% in the data set with Cochliobolus sativus; 90 to 100% in the data set with Puccinia triticina; 50 to 89% in the data set on Leptosphaeria nodorum; 90 to 100% with Pyricularia oryzae.

The term melting point denotes the temperature, or range, at which the solid turns liquid.
